The results in this text go back to publication PMC10122656, “Siglec-6 mediates the uptake of extracellular vesicles through a noncanonical glycolipid binding pocket” (Nature Communications, 2023).

One data set concerns the target T1, R92K Siglec-6-Fc (Homo sapiens, UniProt O43699, R92K).
T1 construct: the Siglecs as Fc chimeras; made in house; host or cells: WT CHO cells
In words: Bead assay (Siglec-Fc on streptavidin microbeads, flow cytometry). The class given is binding. On the procedure: (§1) Siglec-Fc constructs designed by Rodrigues et al.[30] were used in this work. Siglec-Fc constructs were expressed using WT CHO cells in cell culture media as described above with 1% HEPES. Cells incubated as described above for one-week post confluency. The supernatant was harvested and stored at 4 °C.
(§2) The purification was heavily inspired by Rodrigues et al.[30]. The purification of the Siglec-Fcs from supernatant began with Ni^2+ affinity chromatography using an AKTA FPLC equipped with a HisTrap Excel column (GE). The column was equilibrated with fifteen column volumes (CVs) of equilibrium buffer (500 mM NaCl, 20 mM NaPO4H2, pH 7.4). The Siglec-Fc containing supernatant was then loaded in its entirety onto the column. The column was then washed with fifteen CVs of wash buffer (500 mM NaCl, 30 mM imidazole, 20 mM NaPO4H2, pH 7.4). The Siglec-Fc was then eluted in 20 in 1 mL fractions with twenty CVs of elution buffer (500 mM NaCl, 500 mM imidazole, 20 mM NaPO4H2, pH 7.4). Fractions containing Siglec-Fc were compiled and then prepared for the next stage of purification by diluting the fractions 1:4 with buffer W (100 mM Tris–HCl, 150 mM NaCl, 1 mM EDTA, pH 8.0). A Strep-Tactin column (IBA life sciences) was washed with fifteen CVs of buffer W. The Siglec-Fc-buffer W solution was then loaded in its entirety onto the column. The bound Siglec-Fc was then washed with fifteen CVs of buffer W. Siglec-Fc was eluted from the column with 15 column volumes of buffer E (100 mM Tris–HCl, 150 mM NaCl, 1 mM EDTA, 10 mM d-Desthiobiotin, pH 8.0). Fractions containing Siglec-Fc were pooled and dialyzed against PBS to remove any d-Desthiobiotin. After dialysis, Siglec-Fcs were concentrated using an ultra-centrifugal device (30 kDa MWCO) and aliquoted into 5 µg aliquots, and frozen. The Siglec-Fcs were then lyophilized overnight, and the lyophilized Siglec-Fcs were stored at −20 °C.
(§3) Pierce^TM Streptavidin Magnetic Beads (Thermo Scientific) were blocked with 2% (m/V) BSA on ice for 1 h. Siglec-Fc in PBS was added then added to the bead solution such that the final concentration was 25 µg/mL. The Siglec-Fc was complexed to the beads for 1 h on ice. Excess Siglec-Fc was removed by washing the beads with 2% BSA solution and 50 µM liposome or 50 µg/mL (protein concentration) EV solution was then added to the beads. The beads were incubated with the liposomes/EVs for 30 min at 37 °C. The beads were then washed with 2% BSA solution and flow cytometry was used to measure the binding between the beads and the liposomes.
(In flow cytometry, cells or beads pass a laser one at a time.)

The next data set has as its target T2, WT Siglec-6-Fc (Homo sapiens, UniProt O43699).
T2 construct: the Siglecs as Fc chimeras; made in house; host or cells: WT CHO cells
Described as above. The format is binding. How it is done:
as §1, §2, §3

Another data set deals with memory B-cells. In words: Liposome binding to peripheral blood memory B-cells by flow cytometry. The format is cell-based, human. On the procedure:
(§4) 200,000 cells/well were plated into a 96-well U-bottom microplate and centrifuged at 300 × g for 5 min. The cells were then resuspended in 50 µL of 50 µM liposome/50 µg/mL (protein concentration) of EV solution in DMEM F12 5% FBS and incubated at 37 °C for 30 min. Excess liposomes were then removed via centrifuged at 300 × g for 5 min followed by washing the cells with FACS solution. The cells were then resuspended in (1:250 V/V) anti-Siglec-flow buffer (1% V/V FBS, 500 µM, EDTA Hank’s Balanced Salt Solution pH 7.4), solution and left to rest on ice for 30 min. The cells were then centrifuged again at 300 × g for 5 min and the cells were resuspended in FACS buffer solution and were then ready for analysis by flow cytometry. Information regarding antibody clone, catalog number supplier, label isotype, and dilution can be found in Supplementary Table 6. The Siglec-positive cells were gated on for liposome-binding analysis (Supplementary Fig. 1b).
(§5) Flow cytometry measurements were collected on a 5-laser Fortessa X-20 (BD Bioscience). All the resulting data were analyzed using FlowJo (10.5.3) software (BD Biosciences).

In data set [1] the test system is syncytiotrophoblasts of placental explants. In words: Liposome uptake assay in the placenta explants (confocal microscopy). The format is cell-based, human. Conditions: for liposome binding/uptake, fluorescence signal (replicates): cells not given.
Data set [2] in a line: Ganglioside content quantification in liposomes by ESI-MS. The class given is physicochemical. To be noted: peer review file; Supplementary Table 1. How it is done: The average ganglioside content in a given liposome sample was measured by electrospray ionization mass spectrometry (ESI-MS) using an internal standard (IS)[70]. Briefly, the liposome sample was first disassembled in a methanol solution of 0.15% formic acid, and a known amount of IS was added. The solution was then analyzed by ESI-MS. The total ion abundance (Ab) ratio of the ganglioside (GSL) to the IS measured by ESI-MS is related to the corresponding solution concentration ratio by Eq. (1):1 R=AbGSL/AbIS=GSL/IS and thus the ganglioside concentration can be obtained from linear regression. The corrected ganglioside percentage (GSL%corr) and the ganglioside incorporation in the liposome can be found from Eqs. (2) and (3), respectively, where [GSL]nominal is the nominal concentration of the ganglioside used for liposome preparation:2 GSL%corr=[GSL]/[TotalLipid] 3 Incorporation=[GSL]/GSLnominal
The corresponding deuterium labeled gangliosides, N-ω-CD3-octadecanoyl monosialoganglioside GM2 (GM2-d3), and N-ω-CD3-octadecanoyl monosialoganglioside GM3 (GM3-d3), purchased form Matreya LLC (State College, PA), were used as IS for GM2 and GM3 content quantification, respectively. All these measurements were carried out in negative ion mode using a Q Exactive Hybrid Quadrupole-Orbitrap mass spectrometer coupled with the Nanospray Flex Ion Source (Thermo Fisher Scientific, Bremen, Germany). […]

The test system of data set [3] is Daudi cells transduced with an empty vector. In words: pHrodo internalization assay by flow cytometry. The class given is cell-based, human. To be noted: sheet Figure S42b.
The next data set deals with naïve B-cells. In words: Liposome binding to peripheral blood naïve B-cells by flow cytometry. The class given is cell-based, human. To be noted: sheet Figure S29, 5% GM3-DAG liposomes; cells not given. On the procedure:
as §4, §5

Where “and” joins values, the source holds several entries; their conditions need not be identical. Identical values can stand only once.

T2 sequence (O43699 27-347 limits assumed): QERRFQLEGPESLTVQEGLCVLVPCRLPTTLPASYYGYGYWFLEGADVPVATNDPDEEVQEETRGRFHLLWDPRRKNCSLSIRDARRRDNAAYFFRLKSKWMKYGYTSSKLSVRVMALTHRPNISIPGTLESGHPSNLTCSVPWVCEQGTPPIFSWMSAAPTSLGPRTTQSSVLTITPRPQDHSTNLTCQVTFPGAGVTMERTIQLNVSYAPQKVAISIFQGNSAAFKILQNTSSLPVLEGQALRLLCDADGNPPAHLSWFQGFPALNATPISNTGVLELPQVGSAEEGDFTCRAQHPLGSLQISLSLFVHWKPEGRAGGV
T1 sequence (O43699 27-347 R92K limits assumed): as the sequence (O43699 27-347 limits assumed) above, with R66K counted along it

Regarding `CCCCCCCCCCCCCCCCOCC(COCCCCCCCCCCCCCCCC)OCc1cn(CCO[C@@H]2O[C@H](CO)[C@@H](O[C@@H]3O[C@H](CO)[C@H](O)[C@H](O[C@]4(C(=O)O)C[C@H](O)[C@@H](NC(C)=O)[C@H]([C@H](O)[C@H](O)CO)O4)[C@H]3O)[C@H](O)[C@H]2O)nn1` [nGL 5], at R92K Siglec-6-Fc (bead assay), the “binding of 5 nGLLs to R92K Siglec-6 Fc compared to WT Siglec-6” value is listed as “less than 5%”. Further, on WT Siglec-6-Fc (bead assay), the “blocking of EV binding to Siglec-6 with 5 mol% 5 nGLLs” value was “competed away binding of EVs”. Further, the “5 nGLL binding to memory B-cells after pre-treatment with anti-Siglec-6 antibody” value with memory B-cells is recorded as “Blocking of 5 nGLLs to human memory B-cells was achieved”. In the data set with memory B-cells (four healthy donors), the “5 nGLL binding to memory B-cells compared to naïve B-cells” value was “significant binding”. In data set [1] (live human placental explants, 50 μM liposome, 2 h), the “puncta of 5 nGLLs on syncytiotrophoblasts compared to naked liposomes” value is “significantly more puncta”. Also, in data set [1] (placental explants), the “5 nGLL interaction with syncytiotrophoblasts after pre-treatment with anti-Siglec-6 antibody” value is recorded as “blocked these interactions” and the “colocalization of 5 nGLLs with Siglec-6 compared to naked liposomes” value is “strong colocalization”.
As to GM3, the “incorporation of ganglioside into liposomes” value in data set [2] came out at 96%. The “liposome internalization signal (replicates)” value was 6.1 and 7 and 8.7 and 6.3 in data set [3] (Emp-4 (empty vector, 4)); 11.2 and 11.5 and 13.6 and 13.8 in data set [3] (emp-37 (empty vector, 37)).
With GM2, the “incorporation of ganglioside into liposomes” value in data set [2] came out at 98%.
`CCCCCCCCCCCCCCCCOCC(COCCCCCCCCCCCCCCCC)OCc1cn(CCO[C@@H]2O[C@H](CO)[C@@H](O[C@@H]3O[C@H](CO)[C@H](O)[C@H](O[C@]4(C(=O)O)C[C@H](O)[C@@H](NC(C)=O)[C@H]([C@H](O)[C@H](O)CO)O4)[C@H]3O)[C@H](O)[C@H]2O)nn1` [GM3-DAG]: the “liposome binding, fluorescence signal (replicates)” value was 154 and 151 and 136 and 149 in the data set on naïve B-cells; 264 and 225 and 240 and 223 at R92K Siglec-6-Fc (sheet Figure S27, R92K, assay format not given); 13816 and 10279 and 11696 and 11729 on WT Siglec-6-Fc (sheet Figure S27, WT, assay format not given); 361 and 385 and 363 and 344 in the data set on memory B-cells (sheet Figure S29, 5% GM3-DAG liposomes, cells not given). Moreover, the “liposome binding/uptake, fluorescence signal (replicates)” value is 5737 and 5556 and 5976 in data set [1] (sheet Figure S31, 5% GM3-DAG liposomes + mAb); 20862 and 18720 and 19576 in data set [1] (sheet Figure S31, 5% GM3-DAG liposomes, no mAb).
